Assay results from US9422359B2, “GPCR fusion protein containing an N-terminal autonomously folding stable domain, and crystals of the same” (The Board of Trustees of the Leland Stanford Junior …, priority 2011, dated 2016).

What was measured:
R:G complex = molecular target: T1, R:G complex (Bos taurus, UniProt P04896); experiment: Analytical gel filtration, stability of the R:G complex
T1 construct: HA signal peptide (N); made in house; host or cells: receptor: Sf9 insect cells (baculovirus); Gs subunits: HighFive insect cells
Experimental: […]. Nature 2011 469, 175-180). To maintain the high-affinity nucleotide-free state of the complex, apyrase (25 mU/ml, NEB) was added after 90 min to hydrolyze residual GDP released from G ? supon binding to the receptor. GMP resulting from hydrolysis of GDP by apyrase has very poor affinity for the G protein in the complex.
At this stage the mixture contains the R:G complex, non-functional Gs, and an excess of β2AR. […] To prevent cysteine bridge-mediated aggregation of R:G complexes, 100 μM TCEP was added to the eluted protein prior to concentrating it with a 50 kDa MWCO Millipore concentrator. Of note, it was discovered later that crystal growth improved at even higher TCEP concentrations (above 1 mM) compared to 100 μM TCEP, and that the integrity of the R:G complex in MNG-3 was stable to 10 mM TCEP as measured by gel filtration analysis (FIG. 21C). In contrast, DDM-solubilized β2AR loses its ability to bind the high-affinity antagonist ^3H-dihydroalprenolol in 10 mM TCEP (data not shown), probably due to disruption of extracellular disulfide bonds. Iodoacetamide could not be used to block reactive cysteines on Gs alpha and beta subunits as it caused dissociation of the R:G complex (figure S9b). […] Peak fractions were pooled (FIG. 17b) and concentrated to approximately 90 mg ml^−1 with a 100 kDa MWCO Viva-spin concentrator and analyzed by SDS-PAGE/Coomassie brilliant blue staining (FIG. 17a) and gel filtration (FIG. 17c). To confirm a pure, homogeneous, and dephosphorylated preparation, the R:G complex was routinely analyzed by ion exchange chromatography (FIG. 17d).

T4L-β2AR = molecular target: T2, T4L-β2AR (Homo sapiens, UniProt P07550, M96T/M98T/N187E); experiment: Ligand binding affinity of T4L-β2AR with M96T, M98T mutations
T2 construct: HA signal peptide (N, cleaved yes); made in house; host or cells: Sf9 insect cells, recombinant baculovirus
Excerpt: To increase the probability of obtaining crystals of the R:G complex two strategies were used to increase the polar surface area on the extracellular side of the receptor. […] The PNGaseF-inaccessible glycosylation site of the β2AR at N187 was mutated to Glu.

T1 sequence (P04896 1-380 isoform P04896-2, one chain of several): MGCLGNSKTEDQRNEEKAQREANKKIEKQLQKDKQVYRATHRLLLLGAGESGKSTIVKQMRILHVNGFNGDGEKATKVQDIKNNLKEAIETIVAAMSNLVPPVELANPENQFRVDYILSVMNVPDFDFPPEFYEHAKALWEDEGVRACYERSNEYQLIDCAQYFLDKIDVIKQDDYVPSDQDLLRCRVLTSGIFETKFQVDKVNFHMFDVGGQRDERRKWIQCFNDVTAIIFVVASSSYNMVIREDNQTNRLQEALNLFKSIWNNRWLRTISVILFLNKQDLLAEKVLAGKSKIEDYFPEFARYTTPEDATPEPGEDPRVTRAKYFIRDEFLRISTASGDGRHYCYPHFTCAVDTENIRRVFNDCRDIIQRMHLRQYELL

Nc1nc2c(ncn2[C@@H]2O[C@H](COP(=O)(O)OP(=O)(O)O)[C@@H](O)[C@H]2O)c(=O)[nH]1 [GDP]
effect on the R:G complex (R:G complex; nucleotides at 0.1 mM): cause dissociation of the R:G complex

Nc1nc2c(ncn2[C@@H]2O[C@H](COP(=O)(O)OP(=O)(O)OP(O)(O)=S)[C@@H](O)[C@H]2O)c(=O)[nH]1 [GTPγS]
effect on the R:G complex (R:G complex; nucleotides at 0.1 mM): cause dissociation of the R:G complex

CCCc1ccccc1OCC(O)CNC(C)C (centres unmarked) [[3H]-Dihydroalprenolol, dihydroalprenolol]
effect of the threonine mutations (M96T, M98T) on ligand binding affinity (T4L-β2AR): did not affect ligand binding affinity

NC(=O)CI [iodoacetamide]
effect on the R:G complex (R:G complex; 5 mM for 20 hrs at 20° C.): led to dissociation of the complex

O=P(O)(O)OP(=O)(O)O [pyrophosphate]
effect on the R:G complex (R:G complex; phosphates used at 5 mM): do not cause disruption of the complex
